Experimental data reported in patent US20100267561A1, “HERBICIDAL PYRIDAZINONE DERIVATIVES” (priority 2007, published 2010).

Key:
Assay type in all cases: in vivo
[1] = tested on: winter barley (HORVX, Hordeum vulgare); assay: Test G mixtures of Compound 26 with crop safeners, postemergence plant response; conditions: applied alone, 125 g a.i./ha
Procedure: (§1) This test evaluated the effect of mixtures of Compound 26 with commercial crop safeners cloquintocet-mexyl, mefenpyr-diethyl, and fenchlorazole-ethyl on three plant species. Seeds of winter wheat (TRZAW, Triticum aestivum), winter barley (HORVX, Hordeum vulgare), and wild oat (AVEFA, Avena fatua) (a weed) were planted into a silt loam soil. Plants from these seeds were treated postemergence using test chemicals formulated in a non-phytotoxic solvent mixture that included a surfactant. Plants ranged in height from 6 to 10 cm (2- to 3-leaf stage).
(§2) Plants were grown in a greenhouse using supplemental lighting to maintain a photoperiod of about 14 hours; daytime and nighttime temperatures were about 22-26° C. and 15-19° C., respectively. Balanced fertilizer was applied through the watering system. Treatments consisted of Compound 26 and the above mentioned safeners alone and in combination using a spray volume of 281 L/ha. Each treatment was replicated four times. Treated plants and controls were maintained in a greenhouse for 15 days, after which time all treated plants were compared to controls and visually evaluated. Plant response ratings were calculated as the means of the four replicates based on a scale of 0 to 100 where 0 is no effect and 100 is complete control and are summarized in Tables G1 to G3. Because the safeners alone caused no injury at the rates tested, the expected effect of a mixture of Compound 26 with a safener is the same as the observed effect of Compound 26 alone.
(§3) The highest application rate of each safener was tested alone to confirm the absence of herbicidal activity on the test species when appled postemergence at 125 g ai/ha. Therefore, an extrapolated result of zero for each safener alone at 16, 31, or 62 g ai/ha was used to calculate the mixture response of Compound 26 and these safener application rates.

[2] = tested on: wild oat (AVEFA, Avena fatua); assay: as above; conditions: applied alone, 125 g a.i./ha
Procedure: as §1, §2, §3

[3] = tested on: winter wheat (TRZAW, Triticum aestivum); assay: as above; conditions: applied alone, 125 g a.i./ha
Procedure: as §1, §2, §3

[4] = tested on: winter barley (HORVX, Hordeum vulgare); assay: Test F mixtures with safener cloquintocet-mexyl, pre-/postemergence plant response; conditions: for HORVX Obsd. (observed effect) plant response rating, scale 0 to 100: applied alone
Excerpt: (§4) This test evaluated the effect of mixtures of Compound 3, Compound 11, or Compound 12 with the commercial crop safener cloquintocet-mexyl on three plant species. Seeds of test plants consisting of winter wheat (TRZAW, Triticum aestivum), winter barley (HORVX, Hordeum vulgare), and wild oat (AVEFA, Avena fatua) (a weed) were planted into a blend of loam soil and sand and treated preemergence with a directed soil spray using test chemicals formulated in a non-phytotoxic solvent mixture that included a surfactant. At the same time, plants selected from these crop and weed species were treated with postemergence applications of the test chemicals formulated in the same manner. Plants ranged in height from 2 to 18 cm (1- to 4-leaf stage) for postemergence treatments.
(§5) Plants were grown in a greenhouse using supplemental lighting to maintain a photoperiod of about 16 hours; daytime and nighttime temperatures were about 24-30° C. and 19-21° C., respectively. Balanced fertilizer was applied through the watering system. Treatments consisted of Compound 3, Compound 11, or Compound 12 and the above mentioned safener alone and in combination using a spray volume of 457 L/ha. Each treatment was replicated three times. Treated plants and controls were maintained in a greenhouse for 14 to 21 days, after which time all treated plants were compared to controls and visually evaluated. Plant response ratings were calculated as the means of the three replicates and are summarized in Tables F1 to F6, and are based on a scale of 0 to 100 where 0 is no effect and 100 is complete control. Because cloquintocet-mexyl alone caused no injury at the rates tested, the expected effect of a mixture of Compound 3 with cloquintocet-mexyl is the same as the observed effect of Compound 3 applied alone.

[5] = tested on: wild oat (AVEFA, Avena fatua); assay: as above; conditions: for AVEFA Obsd. (observed effect) plant response rating, scale 0 to 100: applied alone
Excerpt: as §4, §5

[6] = tested on: winter wheat (TRZAW, Triticum aestivum); assay: as above; conditions: for TRZAW Obsd. (observed effect) plant response rating, scale 0 to 100: applied alone
Excerpt: as §4, §5

CCCCCC(C)OC(=O)COc1ccc(Cl)c2cccnc12 (stereo not drawn) [cloquintocet-mexyl, reference compound]
HORVX Obsd. (observed effect) plant response rating, scale 0 to 100 [1]: 0 | AVEFA Obsd. (observed effect) plant response rating, scale 0 to 100 [2]: 0 | TRZAW Obsd. (observed effect) plant response rating, scale 0 to 100 [3]: 0 | HORVX Obsd. (observed effect) plant response rating, scale 0 to 100 ([4]; postemergence, 4 g a.i./ha): 0 | HORVX Obsd. (observed effect) plant response rating, scale 0 to 100 ([4]; postemergence, 8 g a.i./ha): 0 | HORVX Obsd. (observed effect) plant response rating, scale 0 to 100 ([4]; preemergence, 4 g a.i./ha): 0 | HORVX Obsd. (observed effect) plant response rating, scale 0 to 100 ([4]; preemergence, 8 g a.i./ha): 0 | plant response (injury), safener alone ([4]; winter barley, safener alone at the rates tested, pre- and postemergence, 14 to 21 days): no injury | AVEFA Obsd. (observed effect) plant response rating, scale 0 to 100 ([5]; postemergence, 4 g a.i./ha): 0 | AVEFA Obsd. (observed effect) plant response rating, scale 0 to 100 ([5]; postemergence, 8 g a.i./ha): 0 | AVEFA Obsd. (observed effect) plant response rating, scale 0 to 100 ([5]; preemergence, 4 g a.i./ha): 0 | AVEFA Obsd. (observed effect) plant response rating, scale 0 to 100 ([5]; preemergence, 8 g a.i./ha): 0 | plant response (injury), safener alone ([5]; wild oat, safener alone at the rates tested, pre- and postemergence, 14 to 21 days): no injury | TRZAW Obsd. (observed effect) plant response rating, scale 0 to 100 ([6]; postemergence, 4 g a.i./ha): 0 | TRZAW Obsd. (observed effect) plant response rating, scale 0 to 100 ([6]; postemergence, 8 g a.i./ha): 0 | TRZAW Obsd. (observed effect) plant response rating, scale 0 to 100 ([6]; preemergence, 4 g a.i./ha): 0 | TRZAW Obsd. (observed effect) plant response rating, scale 0 to 100 ([6]; preemergence, 8 g a.i./ha): 0 | plant response (injury), safener alone ([6]; winter wheat, safener alone at the rates tested, pre- and postemergence, 14 to 21 days): no injury
